The results in this text go back to patent US10166279B2, “Vaccine” (Bergen Teknologioverføring AS, priority 2013, dated 2019).

Peptide text beside a SMILES is read from it. Where only a bound is given, the exact number is not on record here.

The target in one data set is T1, GC-C receptor (Homo sapiens, UniProt P25092).
T1 construct: endogenous in cells; host or cells: T-84 cells
T1 sequence (P25092 24-1073): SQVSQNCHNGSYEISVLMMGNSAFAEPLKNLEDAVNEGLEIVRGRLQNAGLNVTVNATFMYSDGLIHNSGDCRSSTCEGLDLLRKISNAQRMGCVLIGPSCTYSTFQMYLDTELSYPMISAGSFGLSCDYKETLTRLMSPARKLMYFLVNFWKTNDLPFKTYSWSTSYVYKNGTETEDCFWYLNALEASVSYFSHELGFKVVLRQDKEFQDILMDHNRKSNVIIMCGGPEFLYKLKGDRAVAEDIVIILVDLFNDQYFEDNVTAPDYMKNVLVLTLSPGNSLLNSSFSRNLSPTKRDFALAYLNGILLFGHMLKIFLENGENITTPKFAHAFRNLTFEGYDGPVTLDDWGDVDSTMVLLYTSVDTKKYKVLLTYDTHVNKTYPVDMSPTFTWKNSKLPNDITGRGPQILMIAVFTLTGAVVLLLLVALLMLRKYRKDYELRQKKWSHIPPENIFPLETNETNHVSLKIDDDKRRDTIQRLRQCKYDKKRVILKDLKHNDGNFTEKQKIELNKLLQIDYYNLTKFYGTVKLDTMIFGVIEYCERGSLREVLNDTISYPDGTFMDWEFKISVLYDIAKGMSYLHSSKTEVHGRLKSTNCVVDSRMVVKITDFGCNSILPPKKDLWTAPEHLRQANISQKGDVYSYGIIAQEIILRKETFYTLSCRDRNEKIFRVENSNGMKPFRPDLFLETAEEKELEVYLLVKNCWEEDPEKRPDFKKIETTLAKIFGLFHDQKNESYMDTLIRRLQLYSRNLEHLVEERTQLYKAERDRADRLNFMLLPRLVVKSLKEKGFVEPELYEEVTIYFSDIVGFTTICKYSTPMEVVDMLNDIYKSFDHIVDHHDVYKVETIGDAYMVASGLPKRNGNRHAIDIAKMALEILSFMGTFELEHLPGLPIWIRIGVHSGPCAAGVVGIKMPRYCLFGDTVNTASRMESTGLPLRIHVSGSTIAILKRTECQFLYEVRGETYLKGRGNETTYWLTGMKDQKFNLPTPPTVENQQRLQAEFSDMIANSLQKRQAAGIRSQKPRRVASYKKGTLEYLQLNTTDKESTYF
In words: GC-C receptor T-84 cell assay (toxicity, cGMP levels) of culture filtrates. In kind it is cell-based. The following applies: T84 cell assay, culture filtrate. The protocol:
T-84 cells were seeded and cultured in each well of a 24 well plate. After removing the Dulbecco's modified Eagle's medium (DMEM:F12 (1:1) Lonza Walkersville, Inc.), cells were washed 3 times with 0.5 mL DMEM. Cells were incubated with 0.25 mL DMEM containing 1 mM 3-isobutyl-1-methylxanthine (IBMX) for 10 min at 37° C. 0.1 mL of sample (culture filtrate) was added to each well and incubated for 60 min at 37° C. Following incubation, the reaction medium was aspirated, and the cells were lysed with […] HCl at room temperature for 20 min. The lysates were centrifuged at top speed for 10 min and the cGMP levels were measured in control- and agonist-stimulated cells with a direct cGMP enzyme immunoassay kit (Enzo Life Sciences, Inc.) according to the manufacturer's instructions.
The culture filtrate of each mutant was added to the T-84 cells in duplicate, and a serial dilution of culture filtrates with recombinantly expressed native ST was used to generate a standard curve.
Toxicity measured in culture filtrates is a product of intrinsic toxicity (toxicity per mol) and the concentration of the ST mutant. The same is true for antigenicity. […] Since we have no method for accurately measuring ST (mutant) concentrations in culture filtrates, we are not able to directly measure intrinsic toxicities and antigenicities for the ST mutants.
To circumvent this problem we measure toxicity and antigenicity for the ST mutants relative to native ST. This allows us to describe changes in toxicity and antigenicity in mutant culture filtrates. Next, we divide the change in antigenicity by the change in toxicity for each mutant. If the same culture filtrate has been used to measure toxicity and antigenicity this allows us to eliminate the of the concentration.
As to `CC(C)C[C@@H]1NC(=O)[C@H](CCC(=O)O)NC(=O)[C@@H]2CSSC[C@@H]3NC(=O)[C@H](C)NC(=O)[C@@H]4CCCN4C(=O)[C@H]([C@@H](C)O)NC(=O)[C@H](CSSC[C@H](NC(=O)[C@H](Cc4ccc(O)cc4)NC(=O)[C@H](CC(N)=O)NC(=O)[C@H](CO)NC(=O)[C@H](CO)NC(=O)[C@@H](N)CC(N)=O)C(=O)N2)NC(=O)[C@H](CSSC[C@@H](C(=O)N[C@@H](Cc2ccc(O)cc2)C(=O)O)NC(=O)CNC(=O)[C@H]([C@@H](C)O)NC3=O)NC1=O` [Mutant N12T] (HELM PEPTIDE1{N.S.S.N.Y.C.C.E.L.C.C.T.P.A.C.T.G.C.Y}$PEPTIDE1,PEPTIDE1,6:R3-11:R3|PEPTIDE1,PEPTIDE1,7:R3-15:R3|PEPTIDE1,PEPTIDE1,10:R3-18:R3$$$V2.0), the “toxicity relative to native STh” value stood at 0.03.

The data set is the same for the next values; noted with them: relative to native STh; culture filtrate; ^2 = no detectable toxicity, set to detection limit 0.0014.
As for `CC(C)C[C@@H]1NC(=O)[C@H](CCC(=O)O)NC(=O)[C@@H]2CSSC[C@@H]3NC(=O)[C@H](CCCNC(=N)N)NC(=O)[C@@H]4CCCN4C(=O)[C@H](CC(N)=O)NC(=O)[C@H](CSSC[C@H](NC(=O)[C@H](Cc4ccc(O)cc4)NC(=O)[C@H](CC(N)=O)NC(=O)[C@H](CO)NC(=O)[C@H](CO)NC(=O)[C@@H](N)CC(N)=O)C(=O)N2)NC(=O)[C@H](CSSC[C@@H](C(=O)N[C@@H](Cc2ccc(O)cc2)C(=O)O)NC(=O)CNC(=O)[C@H]([C@@H](C)O)NC3=O)NC1=O` [Mutant A14R] (HELM PEPTIDE1{N.S.S.N.Y.C.C.E.L.C.C.N.P.R.C.T.G.C.Y}$PEPTIDE1,PEPTIDE1,6:R3-11:R3|PEPTIDE1,PEPTIDE1,7:R3-15:R3|PEPTIDE1,PEPTIDE1,10:R3-18:R3$$$V2.0), the Toxicity is < 0.0014^2. Turning to `CSCC[C@H](N)C(=O)N[C@@H](CO)C(=O)N[C@@H](CO)C(=O)N[C@@H](CC(N)=O)C(=O)N[C@@H](Cc1ccc(O)cc1)C(=O)N[C@H]1CSSC[C@@H]2NC(=O)[C@@H]3CSSC[C@@H](C(=O)N[C@@H](Cc4ccc(O)cc4)C(=O)O)NC(=O)CNC(=O)[C@H]([C@@H](C)O)NC(=O)[C@H](CSSC[C@H](NC1=O)C(=O)N[C@@H](CCC(=O)O)C(=O)N[C@@H](CC(C)C)C(=O)N3)NC(=O)[C@H](C)NC(=O)[C@@H]1CCCN1C(=O)[C@H](CC(N)=O)NC2=O` [Mutant N01M] (HELM PEPTIDE1{M.S.S.N.Y.C.C.E.L.C.C.N.P.A.C.T.G.C.Y}$PEPTIDE1,PEPTIDE1,6:R3-11:R3|PEPTIDE1,PEPTIDE1,7:R3-15:R3|PEPTIDE1,PEPTIDE1,10:R3-18:R3$$$V2.0), the Toxicity is listed as 1.8910. For the compound `CC(C)C[C@@H]1NC(=O)[C@H](CCC(=O)O)NC(=O)[C@@H]2CSSC[C@@H]3NC(=O)[C@H](C)NC(=O)[C@@H]4CCCN4C(=O)[C@H](CC(N)=O)NC(=O)[C@H](CSSC[C@H](NC(=O)[C@H](Cc4ccc(O)cc4)NC(=O)[C@H](CC(C)C)NC(=O)[C@H](CO)NC(=O)[C@H](CO)NC(=O)[C@@H](N)CC(N)=O)C(=O)N2)NC(=O)[C@H](CSSC[C@@H](C(=O)N[C@@H](Cc2ccc(O)cc2)C(=O)O)NC(=O)CNC(=O)[C@H]([C@@H](C)O)NC3=O)NC1=O` [Mutant N04L] (HELM PEPTIDE1{N.S.S.L.Y.C.C.E.L.C.C.N.P.A.C.T.G.C.Y}$PEPTIDE1,PEPTIDE1,6:R3-11:R3|PEPTIDE1,PEPTIDE1,7:R3-15:R3|PEPTIDE1,PEPTIDE1,10:R3-18:R3$$$V2.0), the Toxicity is on record as 0.2934.

Take `C[C@@H]1NC(=O)[C@@H]2CCCN2C(=O)[C@H](CC(N)=O)NC(=O)[C@@H]2CSSC[C@H](NC(=O)[C@H](Cc3ccc(O)cc3)NC(=O)[C@H](CC(N)=O)NC(=O)[C@H](CO)NC(=O)[C@H](CO)NC(=O)[C@@H](N)CC(N)=O)C(=O)N[C@H]3CSSC[C@H](NC1=O)C(=O)N[C@@H]([C@@H](C)O)C(=O)NCC(=O)N[C@H](C(=O)N[C@@H](Cc1ccc(O)cc1)C(=O)O)CSSC[C@H](NC(=O)CNC(=O)[C@H](CCC(=O)O)NC3=O)C(=O)N2` [Mutant L09G] (HELM PEPTIDE1{N.S.S.N.Y.C.C.E.G.C.C.N.P.A.C.T.G.C.Y}$PEPTIDE1,PEPTIDE1,6:R3-11:R3|PEPTIDE1,PEPTIDE1,7:R3-15:R3|PEPTIDE1,PEPTIDE1,10:R3-18:R3$$$V2.0): the Toxicity is < 0.0014^2.

Consider `CC(C)C[C@@H]1NC(=O)[C@H](CCC(=O)O)NC(=O)[C@@H]2CSSC[C@@H]3NC(=O)[C@H](CCC(=O)O)NC(=O)[C@@H]4CCCN4C(=O)[C@H](CC(N)=O)NC(=O)[C@H](CSSC[C@H](NC(=O)[C@H](Cc4ccc(O)cc4)NC(=O)[C@H](CC(N)=O)NC(=O)[C@H](CO)NC(=O)[C@H](CO)NC(=O)[C@@H](N)CC(N)=O)C(=O)N2)NC(=O)[C@H](CSSC[C@@H](C(=O)N[C@@H](Cc2ccc(O)cc2)C(=O)O)NC(=O)CNC(=O)[C@H]([C@@H](C)O)NC3=O)NC1=O` [Mutant A14E] (HELM PEPTIDE1{N.S.S.N.Y.C.C.E.L.C.C.N.P.E.C.T.G.C.Y}$PEPTIDE1,PEPTIDE1,6:R3-11:R3|PEPTIDE1,PEPTIDE1,7:R3-15:R3|PEPTIDE1,PEPTIDE1,10:R3-18:R3$$$V2.0), for which the Toxicity is < 0.0014^2. As to `CC(C)C[C@@H]1NC(=O)[C@H](CCC(=O)O)NC(=O)[C@@H]2CSSC[C@@H]3NC(=O)[C@H](Cc4c[nH]cn4)NC(=O)[C@@H]4CCCN4C(=O)[C@H](CC(N)=O)NC(=O)[C@H](CSSC[C@H](NC(=O)[C@H](Cc4ccc(O)cc4)NC(=O)[C@H](CC(N)=O)NC(=O)[C@H](CO)NC(=O)[C@H](CO)NC(=O)[C@@H](N)CC(N)=O)C(=O)N2)NC(=O)[C@H](CSSC[C@@H](C(=O)N[C@@H](Cc2ccc(O)cc2)C(=O)O)NC(=O)CNC(=O)[C@H]([C@@H](C)O)NC3=O)NC1=O` [Mutant A14H] (HELM PEPTIDE1{N.S.S.N.Y.C.C.E.L.C.C.N.P.H.C.T.G.C.Y}$PEPTIDE1,PEPTIDE1,6:R3-11:R3|PEPTIDE1,PEPTIDE1,7:R3-15:R3|PEPTIDE1,PEPTIDE1,10:R3-18:R3$$$V2.0), the Toxicity is < 0.0014^2.

Another data set deals with anti-STh mAb ST:G8. As to the kind of experiment: Competitive ELISA with anti-STh antibodies (polyclonal, mAb ST:G8). Type of data set: binding. To be noted: polyclonal and monoclonal (ST:G8) anti-STh antibodies. How it is done:
Competitive STh ELISA was performed as previously described (PMID: 6520401; Lockwood and Robertson, J Immunol Methods. 1984 Dec. 31; 75(2):295-307) with minor modifications. A U-shaped microtiter plate (Linbro, Fisher Scientific, Göteborg, Sweden) was coated with STh-ovalbumin conjugate diluted in ELISA buffer (NaCl 128 mM, KCl 2.68 mM, KH2PO4 1.47 mM, Na2HPO4 8.10 mM; pH 7.0-7.2). The plate was covered with plate sealer and incubated overnight at 37° C. Contents of the wells were discarded by inversion. Additional protein binding sites were blocked by incubating with ovalbumin 1% (w/v) (Sigma-Aldrich) diluted in ELISA buffer. After incubation for 1 h at 37° C., wells were emptied and washed three times with wash buffer (ELISA buffer containing ovalbumin 0.05% (w/v) and Tween-20 0.05% (v/v)). 75 μL of samples containing STh and 75 μL of diluted antisera (Protein-A purified rabbit anti-STa kindly supplied by John D. Clements; Department of Microbiology and Immunology, Tulane University, New Orleans, USA) were added. Both dilutions were done in ELISA buffer containing ovalbumin 0.05% (w/v). Appropriate dilutions and concentrations of reagents were determined by checkerboard titrations. The plate was incubated for 2 h at 37° C., in a rotary incubator shaker (Infors HT, Bottmingen/Basel Switzerland) at 180 rpm. Wells were emptied and washed three times with wash buffer. 100 μL of anti-Rabbit IgG Alkaline Phosphatase Conjugate developed in goat (Sigma-Aldrich) diluted 1:400 in ELISA buffer with ovalbumin 0.05% (w/v) were add and incubated with not shaking for 1 h at 37° C. Wells were emptied and washed three times with wash buffer followed by addition of 100 μL of 4-Nitrophenyl phosphate disodium salt hexahydrate at 1 mg/mL in diethanolamine buffer (diethanolamine 9.7% (v/v), MgCl2×6H2O 0.49 mM; pH 9.8). After incubation for 30 min, the reaction was stopped with 50 μL 2N NaOH (VWR international) in each well. The absorbance was read in an automatic plate reader at 405 nm (FLUOstar OPTIMA; BMG Labtech, Germany). All samples were measured in triplicate.
The anti-STh mAb ST:G8 was kindly supplied by S. Visweswariah [Garrett & Visweswariah; PMID: 8950201]. The anti-STp mAbs clone 29, clone 30, and clone 31 were obtained from Fitzgerald Industries International.
ELISA-plates (Nunc Amino Immobilizer) were coated with STh-OvA conjugate in PBS, volume 100 μl per well (synthetic STh conjugated to OvA: For ST:G8 0.04 μl/well, for clone 29 and clone 30 0.01 μl/well). Plates were incubated overnight at 4 C. Subsequently, plates were emptied and blocked with PBS-T 1% OvA for 1h at 20° C. with shaking 180 rpm. […] Developing was stopped by adding 50 μl NaOH 2M to each well, and OD was read at 405 nm with a Fluostar Optima plate reader.
Regarding NTFYCCELCCNPACAGCY [STp], the “binding by anti-STh antibodies” value is given as “bound”. With NSSNYCCELCCNPACTGCY [STh], the “binding by anti-STh antibodies” value is recorded as “bound”.

As to “guanylin (PGTCEICAYAACTGC) [endogenous peptide ligand of the GC-C receptor]”, the “binding by anti-STh antibodies” value was “not”.
